Data set [1] is described as follows: The drug is tested on Bifidobacterium breve strain: DSM20213 for biotransformation. The drug concentrations were measured before and after a 12-h incubation by liquid-chromatography-coupled mass spectrometry (LC–MS). Particulars: 2 µM.
Data set [2] is described as follows: The drug is tested on Bifidobacterium longum subsp. Infantis strain: CCUG52486 for biotransformation. The drug concentrations were measured before and after a 12-h incubation by liquid-chromatography-coupled mass spectrometry (LC–MS). The conditions noted are these: 2 µM.
Data set [3] is described as follows: The drug is tested on Collinsella aerofaciens strain: ATCC25986 for biotransformation. The drug concentrations were measured before and after a 12-h incubation by liquid-chromatography-coupled mass spectrometry (LC–MS). The conditions noted are these: 2 µM.
Data set [4] is described as follows: The drug is tested on Bacteroides coprophilus strain: DSM18228 for biotransformation. The drug concentrations were measured before and after a 12-h incubation by liquid-chromatography-coupled mass spectrometry (LC–MS). Particulars: 2 µM.
Data set [5] in a line: The drug is tested on Bacteroides fragilis strain: HMW615 for biotransformation. The drug concentrations were measured before and after a 12-h incubation by liquid-chromatography-coupled mass spectrometry (LC–MS). Particulars: 2 µM.
Data set [6] is described as follows: The drug is tested on Bacteroides ovatus strain: ATCC8483 for biotransformation. The drug concentrations were measured before and after a 12-h incubation by liquid-chromatography-coupled mass spectrometry (LC–MS). The conditions noted are these: 2 µM.
Data set [7] can be described thus: The drug is tested on Bacteroides sp. WH2 strain: WH2 for biotransformation. The drug concentrations were measured before and after a 12-h incubation by liquid-chromatography-coupled mass spectrometry (LC–MS). The conditions noted are these: bacteroides sp. wh2, 12 h, 2 µM.
Data set [8] in a line: The drug is tested on Clostridium ramosum strain: DSM1402 for biotransformation. The drug concentrations were measured before and after a 12-h incubation by liquid-chromatography-coupled mass spectrometry (LC–MS). Particulars: thomasclavelia ramosa, 2 µM.
The nature of data set [9]: The drug is tested on Enterococcus faecalis strain: V583 for biotransformation. The drug concentrations were measured before and after a 12-h incubation by liquid-chromatography-coupled mass spectrometry (LC–MS). The conditions noted are these: 2 µM.
Data set [10] in a line: The drug is tested on Eubacterium hallii strain: DSM3353 for biotransformation. The drug concentrations were measured before and after a 12-h incubation by liquid-chromatography-coupled mass spectrometry (LC–MS). The conditions noted are these: anaerobutyricum hallii, 2 µM.
Data set [11] can be described thus: The drug is tested on Eubacterium rectale strain: ATCC33656 for biotransformation. The drug concentrations were measured before and after a 12-h incubation by liquid-chromatography-coupled mass spectrometry (LC–MS). The conditions noted are these: agathobacter rectalis, 2 µM.
The nature of data set [12]: The drug is tested on Eubacterium ventriosum strain: ATCC27560 for biotransformation. The drug concentrations were measured before and after a 12-h incubation by liquid-chromatography-coupled mass spectrometry (LC–MS). On the set-up: dose 2 uM, timepoint 0 vs 12 hours. Particulars: 2 µM. It is filed as ADME.
Data set [13] in a line: The drug is tested on Ruminococcus torques strain: ATCC27756 for biotransformation. The drug concentrations were measured before and after a 12-h incubation by liquid-chromatography-coupled mass spectrometry (LC–MS). The conditions noted are these: 2 µM. More on the design: dose 2 uM, timepoint 0 vs 12 hours. It is filed as ADME.
Data set [14] can be described thus: The drug is tested on Escherichia coli strain: BW25113 for biotransformation. The drug concentrations were measured before and after a 12-h incubation by liquid-chromatography-coupled mass spectrometry (LC–MS). The conditions noted are these: 2 µM.
The nature of data set [15]: The drug is tested on Providencia stuartii strain: ATCC25827 for biotransformation. The drug concentrations were measured before and after a 12-h incubation by liquid-chromatography-coupled mass spectrometry (LC–MS). The conditions noted are these: 2 µM.
For data set [16] the following is noted: bifidobacterium adolescentis, 12 h, 2 µM.
Description: The drug is tested on Bifidobacterium adolescentis strain: ATCC 15703 for biotransformation. The drug concentrations were measured before and after a 12-h incubation by liquid-chromatography-coupled mass spectrometry (LC–MS)
The conditions of data set [17]: enterocloster bolteae, 12 h, 2 µM.
Description: The drug is tested on Clostridium bolteae strain: ATCCBAA-613 for biotransformation. The drug concentrations were measured before and after a 12-h incubation by liquid-chromatography-coupled mass spectrometry (LC–MS)
For data set [18] the following is noted: victivallis vadensis, 12 h, 2 µM.
Description: The drug is tested on Victivallis vadensis strain: ATCC BAA-548 for biotransformation. The drug concentrations were measured before and after a 12-h incubation by liquid-chromatography-coupled mass spectrometry (LC–MS)
Data set [19] can be described thus: The drug is tested on Bacteroides xylanisolvens strain: DSM18836 for biotransformation. The drug concentrations were measured before and after a 12-h incubation by liquid-chromatography-coupled mass spectrometry (LC–MS). The conditions noted are these: 2 µM.
The conditions of data set [20]: parabacteroides johnsonii, 12 h, 2 µM.
Description: The drug is tested on Parabacteroides johnsonii strain: DSM18315 for biotransformation. The drug concentrations were measured before and after a 12-h incubation by liquid-chromatography-coupled mass spectrometry (LC–MS)

The results in this text go back to ChEMBL document CHEMBL5303573, “Mapping human microbiome drug metabolism by gut bacteria and their genes” (Nature, 2019).

Regarding `OC(CCN1CCCCC1)(c1ccccc1)C1CC2C=CC1C2` (centres undefined) [BIPERIDEN], the “Bacterial Biotransformation” value in data set [1], in [2], in data set [3], in [4], in data set [5] and in data set [6] was “Compound NOT metabolized” throughout. The “Bacterial Biotransformation” value in data set [7], in data set [8], in [9], in [10], in [11] and in data set [12] was “Compound NOT metabolized” in each case. Moreover, the “Bacterial Biotransformation” value in [13], in data set [14], in data set [15], in data set [16], in data set [17] and in data set [18] was “Compound NOT metabolized” each time.
Consider `CC(NC(C)(C)C)C(=O)c1cccc(Cl)c1` (centres undefined) [BUPROPION], for which the “Bacterial Biotransformation” value was “Compound NOT metabolized” in data set [1]; “Compound metabolized” in data set [4]; “Compound NOT metabolized” in [5]; “Compound metabolized” in data set [6]; “Compound NOT metabolized” in data set [7]; “Compound NOT metabolized” in data set [19]. Further, the “Bacterial Biotransformation” value in [8] is listed as “Compound NOT metabolized”; in data set [9] it was “Compound NOT metabolized”; in data set [10], “Compound NOT metabolized”; in data set [13], “Compound NOT metabolized”; in [14] it was “Compound metabolized”; in data set [20] it was “Compound NOT metabolized”. Moreover, the “Bacterial Biotransformation” value in data set [17] and in data set [18] was “Compound NOT metabolized” in each case.
As to `CN(C)CCC=C1c2ccccc2C=Cc2ccccc21` [CYCLOBENZAPRINE], the “Bacterial Biotransformation” value in data set [1], in data set [2], in [3], in data set [4], in data set [5] and in [6] was “Compound NOT metabolized” each time. Moreover, the “Bacterial Biotransformation” value in [7], in [19], in data set [8], in [9], in [10] and in [11] was “Compound NOT metabolized” throughout. Moreover, the “Bacterial Biotransformation” value in data set [12], in data set [13], in [14], in data set [15], in [16] and in [17] was “Compound NOT metabolized” each time. The “Bacterial Biotransformation” value in data set [18] is reported as “Compound NOT metabolized”.
`CC(=O)O[C@]1(C(C)=O)CC[C@H]2[C@@H]3C=C(Cl)C4=CC(=O)[C@@H]5C[C@@H]5[C@]4(C)[C@H]3CC[C@@]21C` [CYPROTERONE ACETATE]: the “Bacterial Biotransformation” value in data set [1] is given as “Compound NOT metabolized”; in data set [2], “Compound NOT metabolized”; in data set [3] it was “Compound metabolized”; in data set [4], “Compound metabolized”; in data set [5], “Compound metabolized”; in [6], “Compound metabolized”. Besides, the “Bacterial Biotransformation” value in [7] was “Compound NOT metabolized”; in data set [19], “Compound metabolized”; in [8] it was “Compound NOT metabolized”; in data set [9], “Compound NOT metabolized”; in [10], “Compound NOT metabolized”; in data set [12], “Compound NOT metabolized”. Also, the “Bacterial Biotransformation” value in data set [13] is “Compound NOT metabolized”; in data set [14] it was “Compound metabolized”; in data set [16], “Compound NOT metabolized”; in data set [20], “Compound metabolized”; in [17], “Compound NOT metabolized”; in data set [18], “Compound NOT metabolized”.
Turning to `CC[C@H](C)C(=O)O[C@H]1C[C@@H](C)C=C2C=C[C@H](C)[C@H](CC[C@@H]3C[C@@H](O)CC(=O)O3)[C@H]21` [LOVASTATIN], the “Bacterial Biotransformation” value in data set [1] is listed as “Compound metabolized”; in data set [2], “Compound NOT metabolized”; in [3], “Compound NOT metabolized”; in [4] it was “Compound NOT metabolized”; in [5], “Compound metabolized”; in data set [6] it was “Compound NOT metabolized”. Besides, the “Bacterial Biotransformation” value in [7] is “Compound NOT metabolized”; in data set [19] it was “Compound NOT metabolized”; in [8] it was “Compound NOT metabolized”; in [9], “Compound metabolized”; in data set [10], “Compound metabolized”; in [11], “Compound NOT metabolized”. For the same compound, the “Bacterial Biotransformation” value is reported as “Compound NOT metabolized” in data set [12]; “Compound NOT metabolized” in data set [13]; “Compound NOT metabolized” in [14]; “Compound metabolized” in data set [16]; “Compound metabolized” in data set [20]; “Compound NOT metabolized” in data set [17]. Further, in data set [18], the “Bacterial Biotransformation” value is “Compound NOT metabolized”.
Consider `COc1ccc2c(c1OC)C(=O)O[C@@H]2[C@H]1c2c(cc3c(c2OC)OCO3)CCN1C` [NOSCAPINE], for which the “Bacterial Biotransformation” value in data set [1] is reported as “Compound metabolized”; in [2], “Compound metabolized”; in data set [3], “Compound metabolized”; in [4] it was “Compound metabolized”; in data set [5] it was “Compound NOT metabolized”; in data set [6] it was “Compound metabolized”. The “Bacterial Biotransformation” value is “Compound NOT metabolized” in data set [7]; “Compound metabolized” in data set [19]; “Compound NOT metabolized” in data set [8]; “Compound metabolized” in data set [9]; “Compound metabolized” in data set [10]; “Compound metabolized” in [12]. Besides, the “Bacterial Biotransformation” value in data set [13] is “Compound metabolized”; in data set [14] it was “Compound NOT metabolized”; in [15], “Compound metabolized”; in data set [16], “Compound NOT metabolized”; in data set [20], “Compound metabolized”; in data set [17], “Compound metabolized”. Besides, in data set [18], the “Bacterial Biotransformation” value was “Compound NOT metabolized”.
On to `Cc1nc2n(c(=O)c1CCN1CCC(c3noc4cc(F)ccc34)CC1)CCCC2O` (centres undefined) [PALIPERIDONE], for which the “Bacterial Biotransformation” value in [1] is on record as “Compound metabolized”; in [2], “Compound metabolized”; in [3], “Compound metabolized”; in [4], “Compound NOT metabolized”; in data set [5], “Compound NOT metabolized”; in [6], “Compound metabolized”. Further, the “Bacterial Biotransformation” value in data set [7] is “Compound NOT metabolized”; in data set [19], “Compound metabolized”; in data set [8], “Compound metabolized”; in data set [10], “Compound metabolized”; in [11], “Compound metabolized”; in data set [13], “Compound metabolized”. The “Bacterial Biotransformation” value in data set [14] was “Compound metabolized”; in data set [16] it was “Compound NOT metabolized”; in data set [20], “Compound metabolized”; in data set [17] it was “Compound metabolized”; in data set [18] it was “Compound NOT metabolized”.
